In US20080279775A1, “Benztropinamine Analogs as Dopamine Uptake Inhibitors” (priority 2005, published 2008):
Where a name gives a salt, the structure may show the parent alone. Read-outs that look alike come from different tables or passages of the source.

Tests used:
mice = test: Locomotor stimulant effects (activity counts per minute); assay type: in vivo; details: injected, at the most effective dose, FIG. 2
Text: In contrast, 2m produced much more modest increases in activity of around 100 counts per min.

DAT = target: T1, DAT (Rattus norvegicus, UniProt P23977); test: Dopamine transporter binding assay, displacement of [3H]WIN 35,428; details: for Ki: rat caudate-putamen membranes, read-out: DAT [3H]WIN 35,428 Ki ± SEM; for Reduction of binding affinity at the DAT compared to 2a: lower affinity than 2a
T1 construct: their brains removed to an ice-cooled dish for dissection of the caudate putamen; from tissue; host or cells: rat caudate putamen membranes (fresh homogenates)
T1 sequence (P23977 whole entry): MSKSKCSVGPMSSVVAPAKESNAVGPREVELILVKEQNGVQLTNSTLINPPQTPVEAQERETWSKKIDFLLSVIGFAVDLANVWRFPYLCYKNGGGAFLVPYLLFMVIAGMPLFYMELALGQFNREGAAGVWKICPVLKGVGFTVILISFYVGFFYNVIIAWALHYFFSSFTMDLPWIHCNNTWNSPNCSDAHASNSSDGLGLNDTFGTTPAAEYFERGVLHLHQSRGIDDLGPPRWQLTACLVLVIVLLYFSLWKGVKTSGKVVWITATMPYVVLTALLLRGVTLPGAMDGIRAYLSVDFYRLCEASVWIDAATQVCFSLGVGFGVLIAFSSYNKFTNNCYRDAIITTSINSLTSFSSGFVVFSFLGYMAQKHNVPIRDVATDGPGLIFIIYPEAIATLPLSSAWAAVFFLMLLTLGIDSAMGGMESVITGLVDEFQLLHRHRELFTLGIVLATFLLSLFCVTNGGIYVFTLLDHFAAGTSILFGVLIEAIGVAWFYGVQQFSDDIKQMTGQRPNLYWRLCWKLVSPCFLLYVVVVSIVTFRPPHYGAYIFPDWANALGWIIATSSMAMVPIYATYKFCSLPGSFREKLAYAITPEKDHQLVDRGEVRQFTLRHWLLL

SERT = target: T2, SERT (Rattus norvegicus, UniProt P31652); test: [3H]Citalopram binding assay; details: for Binding selectivity SERT/DAT: Ki ratio
T2 construct: Membranes from frozen rat midbrain were homogenized; from tissue; host or cells: frozen rat midbrain membranes
T2 sequence (P31652 whole entry): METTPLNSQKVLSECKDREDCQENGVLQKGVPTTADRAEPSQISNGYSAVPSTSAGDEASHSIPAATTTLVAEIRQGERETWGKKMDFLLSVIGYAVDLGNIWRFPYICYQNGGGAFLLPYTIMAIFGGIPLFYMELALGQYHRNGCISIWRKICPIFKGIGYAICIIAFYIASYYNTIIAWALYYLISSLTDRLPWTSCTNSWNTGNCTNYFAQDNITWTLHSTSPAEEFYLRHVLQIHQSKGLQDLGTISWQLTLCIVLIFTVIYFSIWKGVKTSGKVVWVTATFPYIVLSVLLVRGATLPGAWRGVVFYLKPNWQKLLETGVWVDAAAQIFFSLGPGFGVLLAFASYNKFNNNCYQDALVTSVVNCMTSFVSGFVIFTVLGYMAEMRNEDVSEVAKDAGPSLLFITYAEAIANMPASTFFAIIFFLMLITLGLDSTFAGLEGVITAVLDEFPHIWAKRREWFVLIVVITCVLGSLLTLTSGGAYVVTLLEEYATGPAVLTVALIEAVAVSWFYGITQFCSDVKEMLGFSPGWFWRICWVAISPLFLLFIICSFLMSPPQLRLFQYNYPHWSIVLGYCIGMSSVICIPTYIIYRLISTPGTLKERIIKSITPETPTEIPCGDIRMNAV
Description: (§1) In order to understand the neurochemical and behavioral properties of the compounds of the present invention, exemplary benztropinamine analogs were evaluated for displacement of [^3H]WIN 35,428 (2β-carbomethoxy-3β-(4-fluorophenyl)tropane) binding to the DAT in rat caudate-putamen. These benztropinamine analogs were also evaluated for displacement of radiolabeled ligand binding at the serotonin (SERT) and norepinephrine (NET) transporters as well as the muscarinic m1 receptor (M1), Table 1, infra. The NET over DAT selectivity refers to the Ki ratio. When the Ki ratio is greater than 1, the compound is DAT selective. The DAT selectivities of the analogs over these binding sites are depicted in Table 2.
[^3H]Citalopram Binding Assay. Membranes from frozen rat midbrain were homogenized in 20 volumes (w/v) of 50 mM Tris containing 120 mM NaCl and 5 mM KCl (pH 7.4 at 25° C.), using a Brinkman Polytron (at setting 6 for 20 sec). The tissue was centrifuged at 20,000×g for 10 min at 4° C. The resulting pellet was resuspended in buffer and recentrifuged. The final pellet was resuspended in cold buffer to a concentration of 15 mg/ml (original wet weight). Ligand binding experiments were conducted in assay tubes containing 0.5 ml of buffer, 1.4 nM [^3H]citalopram (New England Nuclear, Boston Mass.), and 1.5 mg midbrain tissue. The reaction was started with the addition of the tissue and the tubes were incubated for 60 min at 25° C. (room temperature). The incubation was terminated by rapid filtration through Whatman GF/B filters (presoaked in 0.3% polyethylenimine in water) using a Brandel Cell Harvester (Brandel Instruments Gaithersburg, Md.). The filters were washed twice with 5 ml cold buffer, transferred to scintillation vials to which Beckman Ready Safe was added. Nonspecific binding was determined using 10 μM fluoxetine (RBI, Natick, Mass.). Data were analyzed using GraphPad Prism software (San Diego, Calif.).

muscarinic M1 receptor = target: T3, muscarinic M1 receptor (Rattus norvegicus, UniProt P08482); test: [3H]Pirenzepine binding assay; details: for Binding selectivity M1/DAT: Ki ratio
T3 construct: Membranes from frozen rat brains excluding cerebellum were thawed in ice-cold buffer; from tissue; host or cells: frozen rat brain (excluding cerebellum) membranes
T3 sequence (P08482 1-460): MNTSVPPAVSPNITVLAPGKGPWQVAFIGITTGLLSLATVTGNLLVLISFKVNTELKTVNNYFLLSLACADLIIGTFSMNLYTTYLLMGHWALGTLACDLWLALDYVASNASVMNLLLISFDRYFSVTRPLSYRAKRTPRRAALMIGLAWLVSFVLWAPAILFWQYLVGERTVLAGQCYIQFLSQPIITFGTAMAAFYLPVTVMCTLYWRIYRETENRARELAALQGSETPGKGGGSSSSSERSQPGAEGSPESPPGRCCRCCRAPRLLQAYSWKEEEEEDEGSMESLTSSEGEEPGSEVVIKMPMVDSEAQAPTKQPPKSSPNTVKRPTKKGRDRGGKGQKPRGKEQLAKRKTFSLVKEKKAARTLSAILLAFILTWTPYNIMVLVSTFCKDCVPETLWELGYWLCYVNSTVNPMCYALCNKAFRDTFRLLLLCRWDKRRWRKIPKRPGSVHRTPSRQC
Description: as §1, with “When the Ki ratio is greater than 1, the compound is DAT selective.” left out
[…] Binding Assay. Membranes from frozen rat brains excluding cerebellum were thawed in ice-cold buffer (10 mM Tris-HCl, 320 mM sucrose, pH 7.4) and homogenized with a Brinkman polytron in a volume of 10 ml/gm of tissue. The homogenate was centrifuged at 1,000×g for 10 min at 4° C. The resulting supernatant was then centrifuged at 10,000×g for 20 min at 4° C. The resulting pellet was resuspended in a volume of 200 mg/ml in 10 mM Tris buffer (pH 7.4). Ligand binding assays were conducted in tubes containing 0.5 ml of buffer (10 mM Tris-HCl, 5 mM MgCl2), 3 nM [^3H]pirenzepine (New England Nuclear, Boston, Mass.), and 20 mg of brain tissue. The reaction was started with the addition of the tissue and the tubes were incubated for 60 min in a 37° C. water bath. The incubation was terminated by the addition of 5 ml of ice-cold buffer (10 mM Tris-HCl, pH 7.4) and rapid filtration through Whatman GF/B glass fiber filter paper (presoaked in 0.5% polyethylenimine) using a Brandel Cell Harvester (Brandel Instruments, Gaithersburg, Md.). The filters were washed twice with 5 ml cold buffer, and transferred to scintillation vials to which absolute ethanol and Beckman Ready Safe was added. Quinuclidinyl benzilate (QNB), 100 μM final concentration, was used to determine non-specific binding. Data were analyzed by using GraphPad Prism software (San Diego, Calif.).

NET [1] = assay type: binding, rat; details: for Binding selectivity NET/DAT: Ki ratio
Description: as §1
(§2) [^3H]Nisoxetine Binding Assay. Membranes from frozen frontal cortex dissected from male Sprague-Dawley rats (Taconic Labs, Germantown, N.Y.) were homogenized in 20 volumes (w/v) of 50 mM Tris containing 120 mM NaCl and 5 mM KCl (pH 7.4 at 25° C.), using a Brinkman Polytron (at setting 6 for 20 sec). The tissue was centrifuged at 50,000×g for 10 min at 4° C. The resulting pellet was resuspended in buffer and recentrifuged. The final pellet was resuspended in cold buffer to a concentration of 80 mg/ml (original wet weight). Ligand binding experiments were conducted in assay tubes containing 0.5 ml buffer, 0.5 nM [3H]nisoxetine (New England Nuclear, Boston, Mass.), and 8 mg frontal cortex tissue. The reaction was started with the addition of the tissue and the tubes were incubated for 60 min at 0-4° C. The incubation was terminated by rapid filtration through Whatman GF/B filters, presoaked in 0.05% polyethylenimine, using a Brandel Cell Harvester (Brandel Instruments Gaithersburg, Md.). The filters were washed twice with 5 ml cold buffer, transferred to scintillation vials to which Beckman Ready Safe was added. Nonspecific binding was determined using 1 μM desipramine. Data were analyzed using GraphPad Prism software (San Diego, Calif.).

NET [2] = target: NET (Rattus norvegicus, UniProt Q63380); assay type: binding; details: read-out: NET [3H]nisoxetine Ki ± SEM; rat frontal cortex membranes
Chain of NET (Rattus norvegicus, UniProt Q63380) (Q63380 1-617): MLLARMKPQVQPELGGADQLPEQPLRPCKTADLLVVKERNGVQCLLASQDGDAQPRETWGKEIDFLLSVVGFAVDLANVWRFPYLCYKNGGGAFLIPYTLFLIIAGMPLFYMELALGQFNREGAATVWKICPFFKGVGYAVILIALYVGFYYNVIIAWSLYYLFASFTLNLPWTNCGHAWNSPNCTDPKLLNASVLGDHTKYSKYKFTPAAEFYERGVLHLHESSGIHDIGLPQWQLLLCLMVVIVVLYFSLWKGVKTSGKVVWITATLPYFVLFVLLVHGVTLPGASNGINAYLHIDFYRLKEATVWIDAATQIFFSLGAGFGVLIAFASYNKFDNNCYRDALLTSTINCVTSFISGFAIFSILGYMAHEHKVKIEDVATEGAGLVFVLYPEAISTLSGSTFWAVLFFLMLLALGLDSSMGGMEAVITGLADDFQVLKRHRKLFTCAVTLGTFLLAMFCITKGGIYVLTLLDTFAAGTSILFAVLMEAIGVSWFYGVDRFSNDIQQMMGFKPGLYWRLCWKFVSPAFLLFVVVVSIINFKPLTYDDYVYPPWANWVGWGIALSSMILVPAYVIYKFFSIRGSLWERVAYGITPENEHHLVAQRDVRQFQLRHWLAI
Description: as §1, §2

[3] = rat midbrain membranes, read-out: SERT [3H]citalopram Ki ± SEM
[4] = rat brain membranes excluding cerebellum, read-out: M1 [3H]pirenzepine Ki ± SEM

SMILES	Ki (DAT) [nM]	Binding selectivity SERT/DAT (SERT)	Ki (SERT; [3]) [µM]	Binding selectivity M1/DAT (muscarinic M1 receptor)	Ki (muscarinic M1 receptor; [4]) [nM]	Binding selectivity NET/DAT (NET [1])	further results
CN(C(c1ccc(F)cc1)c1ccc(F)cc1)[C@H]1C[C@H]2CC[C@@H](C1)N2C (as salt: oxalate) [Compound 2c]	–	–	–	–	–	–	melting point: 227 to 228 °C
Fc1ccc(C(N[C@H]2C[C@H]3CC[C@@H](C2)N3)c2ccc(F)cc2)cc1 (as salt: oxalate) [Compound 2g]	–	–	–	–	–	–	melting point: 138 to 140 °C
Fc1ccc(C(N[C@H]2C[C@H]3CC[C@@H](C2)N3CCCCc2ccccc2)c2ccc(F)cc2)cc1 (as salt: oxalate) [Compound 2j]	–	–	–	–	–	–	melting point: 194 to 196 °C
Fc1ccc(C(N[C@H]2C[C@H]3CC[C@@H](C2)N3CCc2c[nH]c3ccccc23)c2ccc(F)cc2)cc1 (as salt: oxalate) [Compound 2l]	–	–	–	–	–	–	melting point: 178 to 180 °C
COC(=O)[C@H]1[C@@H](OC(=O)c2ccccc2)C[C@@H]2CC[C@H]1N2C [Cocaine, cocaine, reference compound]	–	–	–	–	–	–	Locomotor activity (mice): ~400 counts per min
CN1[C@@H]2CC[C@H]1C[C@@H](NC(c1ccc(F)cc1)c1ccc(F)cc1)C2 [Compound 2a]	11.3 ± 1.61	769	8.68 ± 0.436	0.7	7.81 ± 1.17	160	–
CN1[C@@H]2CC[C@H]1C[C@H](NC(c1ccc(F)cc1)c1ccc(F)cc1)C2 [Compound 2b]	661 ± 35	73	–	0.1	–	23	Reduction of binding affinity at the DAT compared to 2a (DAT): 58 fold; Ki (SERT): 48.5 ± 6.37 µM; Ki (muscarinic M1 receptor): 59.4 ± 7.3 nM; Ki (NET [2]): 15.2 ± 1.23 µM
CN1[C@@H]2CC[C@H]1C[C@@H](NC(c1ccc(Cl)cc1)c1ccc(Cl)cc1)C2 [Compound 2d]	–	–	4.18 ± 0.623	–	50 ± 7.1	–	Reduction of binding affinity at the DAT compared to 2a (DAT): around 3 fold
CN1[C@@H]2CC[C@H]1C[C@@H](NC(c1ccccc1)c1ccc(Cl)cc1)C2 (stereo partly shown) [Compound 2e]	36.5 ± 0.66	373	13.6 ± 1.04	0.3	9.3 ± 0.27	87	Reduction of binding affinity at the DAT compared to 2a (DAT): around 3 fold
CN1[C@@H]2CC[C@H]1C[C@@H](NC(c1ccc(Cl)c(Cl)c1)c1ccc(Cl)c(Cl)c1)C2 [Compound 2f]	5.35 ± 0.25	563	3.01 ± 0.332	3	17.8 ± 2.27	48	Higher binding affinity at the DAT compared to 2a (DAT; higher affinity than 2a): 2 fold; Reduction of NET over DAT selectivity compared to 2a (NET [1]; compared to 2a): 3 fold
Fc1ccc(C(N[C@H]2C[C@H]3CC[C@@H](C2)N3)c2ccc(F)cc2)cc1 [Compound 2g]	8.45 ± 0.23	491	4.15 ± 0.368	18	154 ± 19.6	118	–
C=CCN1[C@@H]2CC[C@H]1C[C@@H](NC(c1ccc(F)cc1)c1ccc(F)cc1)C2 [Compound 2h]	26.8 ± 3.43	146	3.92 ± 0.581	5	130 ± 10.5	208	–
CCCCN1[C@@H]2CC[C@H]1C[C@@H](NC(c1ccc(F)cc1)c1ccc(F)cc1)C2 [Compound 2i]	21.5 ± 2.31	123	2.64 ± 0.0276	21	454 ± 36.7	136	–
Fc1ccc(C(N[C@H]2C[C@H]3CC[C@@H](C2)N3CCCCc2ccccc2)c2ccc(F)cc2)cc1 [Compound 2j]	11.7 ± 0.39	43	0.502 ± 0.0681	37	438 ± 56.2	139	–
NCCN1[C@@H]2CC[C@H]1C[C@@H](NC(c1ccc(F)cc1)c1ccc(F)cc1)C2 [Compound 2k]	12.5 ± 1.73	–	–	–	2110 ± 119	–	Lower binding affinity at the M1 receptor compared to 2a (muscarinic M1 receptor; lower affinity than 2a): 170 fold
Fc1ccc(C(N[C@H]2C[C@H]3CC[C@@H](C2)N3CCc2c[nH]c3ccccc23)c2ccc(F)cc2)cc1 [Compound 2l]	–	–	0.347 ± 0.0413	–	413 ± 6.55	–	Reduction of binding affinity at the DAT compared to 2a (DAT): 6 fold
